Measured values reported in US11839613B2, “Pyrimidine derivatives as PGE2 receptor modulators” (IDORSIA PHARMACEUTICALS LTD, priority 2017, dated 2023).

Assays:
PTGER4 (EP4) = PTGER4 (EP4) (Homo sapiens (Human), UniProt P35408); assay: cell-based
PTGER2 (EP2) = PTGER2 (EP2) (Homo sapiens (Human), UniProt P43116); assay: hEP2 b-arrestin assay (PathHunter HEK 293 PTGER2 b-arrestin cells); type: cell-based; conditions: antagonistic activity, beta-arrestin assay; read-out: hEP2 b-arr IC50
Procedure: Plate is pre-incubated 15 minutes at 37° C. Then five microliters of PGE2 (final conc. 5 μM) are transferred into the assay plate. Plate is incubated 120 minutes at 37° C.
(each concentration is measured in duplicate)

Sequence of PTGER4 (EP4) (P35408 whole entry): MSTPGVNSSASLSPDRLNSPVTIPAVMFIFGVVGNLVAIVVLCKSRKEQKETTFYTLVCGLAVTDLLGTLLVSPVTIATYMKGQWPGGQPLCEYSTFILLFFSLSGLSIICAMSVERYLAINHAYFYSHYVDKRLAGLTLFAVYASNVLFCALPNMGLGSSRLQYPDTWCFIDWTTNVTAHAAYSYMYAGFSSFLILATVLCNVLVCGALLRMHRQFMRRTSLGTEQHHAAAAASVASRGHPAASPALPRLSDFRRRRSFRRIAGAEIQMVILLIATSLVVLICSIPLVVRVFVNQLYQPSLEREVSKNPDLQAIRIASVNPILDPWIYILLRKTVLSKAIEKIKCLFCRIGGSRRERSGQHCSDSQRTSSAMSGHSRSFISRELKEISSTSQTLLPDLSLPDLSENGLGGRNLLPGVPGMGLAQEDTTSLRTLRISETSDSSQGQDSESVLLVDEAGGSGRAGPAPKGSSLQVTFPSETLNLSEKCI
Sequence of PTGER2 (EP2) (P43116 whole entry): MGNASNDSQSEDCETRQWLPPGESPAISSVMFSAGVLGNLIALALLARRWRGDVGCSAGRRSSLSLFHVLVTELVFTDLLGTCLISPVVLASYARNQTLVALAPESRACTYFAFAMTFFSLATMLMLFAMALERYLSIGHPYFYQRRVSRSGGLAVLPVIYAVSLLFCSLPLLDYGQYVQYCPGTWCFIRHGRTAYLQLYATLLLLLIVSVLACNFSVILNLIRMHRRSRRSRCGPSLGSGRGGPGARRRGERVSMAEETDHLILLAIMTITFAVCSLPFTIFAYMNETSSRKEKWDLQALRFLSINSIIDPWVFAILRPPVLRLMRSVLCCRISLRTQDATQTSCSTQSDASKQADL

SMILES | IC50 (PTGER4 (EP4)) [nM] | IC50 (PTGER2 (EP2)) [nM]
CCOc1cc2c(cc1CCNc1cc(-c3ccc(CC(=O)O)c(OC(C)C)c3)ncn1)OCCO2 [Example 425, (4-{6-[2-(7-Ethoxy-2,3-dihydro-benzo[1,4]dioxin-6-yl)-ethylamino]-pyrimidin-4-yl}-2-isopropoxy-phenyl)-acetic acid] | 152 | 65
COc1cc2c(c(C)c1CCNc1cc(-c3ccc(CC(=O)O)c(OC(C)C)c3)ncn1)OCCO2 [Example 426, (2-Isopropoxy-4-{6-[2-(7-methoxy-5-methyl-2,3-dihydro-benzo[1,4]dioxin-6-yl)-ethylamino]-pyrimidin-4-yl}-phenyl)-acetic acid] | 46 | 9
CCOc1cc2c(cc1CCNc1cc(-c3ccc(CC(=O)O)c(OC(F)(F)F)c3)ncn1)OCCO2 [Example 427, (4-{6-[2-(7-Ethoxy-2,3-dihydro-benzo[1,4]dioxin-6-yl)-ethylamino]-pyrimidin-4-yl}-2-trifluoromethoxy-phenyl)-acetic acid] | 90 | 17
CSc1cc(-c2cc(NCCc3ccc4scc(Cl)c4c3)ncn2)ccc1C(=O)O [Example 429, 4-{6-[2-(3-Chloro-benzo[b]thiophen-5-yl)-ethylamino]-pyrimidin-4-yl}-2-methylsulfanyl-benzoic acid] | 60 | 52
O=C(O)c1ccc(-c2cc(NCCc3ccc4scc(Cl)c4c3)ncn2)cc1OC1CCC1 [Example 430, 4-{6-[2-(3-Chloro-benzo[b]thiophen-5-yl)-ethylamino]-pyrimidin-4-yl}-2-cyclobutoxy-benzoic acid] | 66 | 69
COc1cc2c(c(C)c1CCNc1cc(-c3ccc(C(=O)O)c(OC(C)C)c3)ncn1)OCCO2 [Example 432, 2-Isopropoxy-4-{6-[2-(7-methoxy-5-methyl-2,3-dihydro-benzo[1,4]dioxin-6-yl)-ethylamino]-pyrimidin-4-yl}-benzoic acid] | 87 | 20
COc1cc(-c2cc(NCCc3c(OC)cc4c(c3C)OCCO4)ncn2)ccc1CC(=O)O [Example 434, (2-Methoxy-4-{6-[2-(7-methoxy-5-methyl-2,3-dihydro-benzo[1,4]dioxin-6-yl)-ethylamino]-pyrimidin-4-yl}-phenyl)-acetic acid] | 58 | 26
CCOc1cc(-c2cc(NCCc3c(OC)cc4c(c3F)OCCO4)ncn2)ccc1C(=O)O [Example 435, 2-Ethoxy-4-{6-[2-(5-fluoro-7-methoxy-2,3-dihydro-benzo[1,4]dioxin-6-yl)-ethylamino]-pyrimidin-4-yl}-benzoic acid] | 110 | 46
COc1cc(-c2cc(NCCc3ccc4sccc4c3F)ncn2)ccc1OCCC(=O)O [Example 437, 3-(4-{6-[2-(4-Fluoro-benzo[b]thiophen-5-yl)-ethylamino]-pyrimidin-4-yl}-2-methoxy-phenoxy)-propionic acid] | 41 | 104
COc1cc2c(c(C)c1CCNc1cc(-c3ccc(CC(=O)O)c(OC(F)F)c3)ncn1)OCCO2 [Example 441, (2-Difluoromethoxy-4-{6-[2-(7-methoxy-5-methyl-2,3-dihydro-benzo[1,4]dioxin-6-yl)-ethylamino]-pyrimidin-4-yl}-phenyl)-acetic acid] | 53 | 10
CCc1cc(-c2cc(NCCc3c(OC)cc4c(c3C)OCCO4)ncn2)ccc1CC(=O)O [Example 444, (2-Ethyl-4-{6-[2-(7-methoxy-5-methyl-2,3-dihydro-benzo[1,4]dioxin-6-yl)-ethylamino]-pyrimidin-4-yl}-phenyl)-acetic acid] | 43 | 15
O=C(O)c1ccc(-c2cc(NCCc3cc(F)c4sccc4c3)ncn2)cc1OC1CC1 [Example 449, 2-Cyclopropoxy-4-{6-[2-(7-fluoro-benzo[b]thiophen-5-yl)-ethylamino]-pyrimidin-4-yl}-benzoic acid] | 46 | 83
CCCc1cc(-c2cc(NCCc3cc(F)c4sccc4c3)ncn2)ccc1C(=O)NC [Example 458, 4-{6-[2-(7-Fluoro-benzo[b]thiophen-5-yl)-ethylamino]-pyrimidin-4-yl}-N-methyl-2-propyl-benzamide] | 104 | 550
CCCc1cc(-c2cc(NCCc3cc(F)c4sccc4c3)ncn2)ccc1C(=O)NCC(C)(C)O [Example 459, 4-{6-[2-(7-Fluoro-benzo[b]thiophen-5-yl)-ethylamino]-pyrimidin-4-yl}-N-(2-hydroxy-2-methyl-propyl)-2-propyl-benzamide] | 236 | 683
CCOc1cc(-c2cc(NCCc3cc(F)c4sccc4c3)ncn2)ccc1C(=O)NCCO [Example 464, 2-Ethoxy-4-{6-[2-(7-fluoro-benzo[b]thiophen-5-yl)-ethylamino]-pyrimidin-4-yl}-N-(2-hydroxy-ethyl)-benzamide] | 87 | 300

The next lines start with the values.

IC50 (PTGER4 (EP4)) [nM] | IC50 (PTGER2 (EP2)) [nM] | SMILES
80 | 424 | CC(C)Oc1cc(-c2cc(NCCc3ccc4sccc4c3F)ncn2)ccc1CC(=O)O [Example 424, (4-{6-[2-(4-Fluoro-benzo[b]thiophen-5-yl)-ethylamino]-pyrimidin-4-yl}-2-isopropoxy-phenyl)-acetic acid]
41 | 7 | COc1cc2c(c(C)c1CCNc1cc(-c3ccc(CC(=O)O)c(OC(F)(F)F)c3)ncn1)OCCO2 [Example 428, (4-{6-[2-(7-Methoxy-5-methyl-2,3-dihydro-benzo[1,4]dioxin-6-yl)-ethylamino]-pyrimidin-4-yl}-2-trifluoromethoxy-phenyl)-acetic acid]
52 | 179 | CCOc1cc(-c2cc(NCCc3ccc4scc(Cl)c4c3)ncn2)ccc1CC(=O)O [Example 431, (4-{6-[2-(3-Chloro-benzo[b]thiophen-5-yl)-ethylamino]-pyrimidin-4-yl}-2-ethoxy-phenyl)-acetic acid]
19 | 30 | CCOc1cc(-c2cc(NCCc3cc4c(cc3OC(F)F)OCCO4)ncn2)sc1C(=O)O [Example 433, 5-{6-[2-(7-Difluoromethoxy-2,3-dihydro-benzo[1,4]dioxin-6-yl)-ethylamino}-pyrimidin-4-yl}-3-ethoxy-thiophene-2-carboxylic acid]
49 | 519 | COc1cc(-c2cc(NCCc3cc(F)c4sccc4c3)ncn2)ccc1OCCC(=O)O [Example 438, 3-(4-{6-[2-(7-Fluoro-benzo[b]thiophen-5-yl)-ethylamino]-pyrimidin-4-yl}-2-methoxy-phenoxy)-propionic acid]
27 | 82 | COc1cc2c(c(F)c1CCNc1cc(-c3ccc(CC(=O)O)c(OC(F)F)c3)ncn1)OCCO2 [Example 442, (2-Difluoromethoxy-4-{6-[2-(5-fluoro-7-methoxy-2,3-dihydro-benzo[1,4]dioxin-6-yl)-ethylamino]-pyrimidin-4-yl}-phenyl)-acetic acid]
29 | 107 | COc1cc2ccccc2c(C)c1CCNc1cc(-c2ccc(CC(=O)O)c(OC(F)F)c2)ncn1 [Example 443, (2-Difluoromethoxy-4-{6-[2-(3-methoxy-1-methyl-naphthalen-2-yl)-ethylamino]-pyrimidin-4-yl}-phenyl)-acetic acid]
38 | 88 | CCc1cc(-c2cc(NCCc3c(OC)cc4ccccc4c3C)ncn2)ccc1CC(=O)O [Example 445, (2-Ethyl-4-{6-[2-(3-methoxy-1-methyl-naphthalen-2-yl)-ethylamino]-pyrimidin-4-yl}-phenyl)-acetic acid]
108 | 32 | CCc1cc(-c2cc(NCCc3c(OC)cc4ccccc4c3C)ncn2)ccc1C(=O)O [Example 446, 2-Ethyl-4-{6-[2-(3-methoxy-1-methyl-naphthalen-2-yl)-ethylamino]-pyrimidin-4-yl}-benzoic acid]
130 | 2 | CCOc1cc2c(cc1CCNc1cc(-c3ccc(C(=O)O)c(OC4CC4)c3)ncn1)OCCO2 [Example 447, 2-Cyclopropoxy-4-{6-[2-(7-ethoxy-2,3-dihydro-benzo[1,4]dioxin-6-yl)-ethylamino]-pyrimidin-4-yl}-benzoic acid]
46 | 15 | COc1cc2ccccc2c(C)c1CCNc1cc(-c2ccc(C(=O)O)c(OC3CC3)c2)ncn1 [Example 448, 2-Cyclopropoxy-4-{6-[2-(3-methoxy-1-methyl-naphthalen-2-yl)-ethylamino]-pyrimidin-4-yl}-benzoic acid]
97 | 66 | COc1cc2c(cc1CCNc1cc(-c3ccc(CC(=O)O)c(OC(F)(F)F)c3)ncn1)OCCO2 [Example 450, (4-{6-[2-(7-Methoxy-2,3-dihydro-benzo[1,4]dioxin-6-yl)-ethylamino]-pyrimidin-4-yl}-2-trifluoromethoxy-phenyl)-acetic acid]
176 | 200 | CCCc1cc(-c2cc(NCCc3cc(F)c4sccc4c3)ncn2)ccc1C(N)=O [Example 457, 4-{6-[2-(7-Fluoro-benzo[b]thiophen-5-yl)-ethylamino]-pyrimidin-4-yl}-2-propyl-benzamide]
161 | 207 | CCCc1cc(-c2cc(NCCc3cc(F)c4sccc4c3)ncn2)ccc1C(=O)NCCO [Example 460, 4-{6-[2-(7-Fluoro-benzo[b]thiophen-5-yl)-ethylamino]-pyrimidin-4-yl}-N-(2-hydroxy-ethyl)-2-propyl-benzamide]
121 | 231 | CCOc1cc(-c2cc(NCCc3cc(F)c4sccc4c3)ncn2)ccc1C(N)=O [Example 461, 2-Ethoxy-4-{6-[2-(7-fluoro-benzo[b]thiophen-5-yl)-ethylamino]-pyrimidin-4-yl}benzamide]
197 | 325 | CCOc1cc(-c2cc(NCCc3cc(F)c4sccc4c3)ncn2)ccc1C(=O)NC [Example 462, 2-Ethoxy-4-{6-[2-(7-fluoro-benzo[b]thiophen-5-yl)-ethylamino]-pyrimidin-4-yl}-N-methyl-benzamide]
